Assay results from patent US20180360799A1, “Nitrofuran Derivatives That Induce Apoptosis in Breast Cancer Cells by Activating Protein Expression” (Oklahoma Medical Research Foundation, priority 2015, published 2018).

Tests used:
[1] = tested on: CHOP promoter-luciferase (CHOP-Luc) reporter; assay: CHOP-Luc reporter assay in HEK293 cells (Bright-Glo); type: cell-based, human; settings: 10 μM, 24 h
Experimental: To identify compounds that activate the expression of CHOP, a HEK293 cell line stably expressing a CHOP-Luc reporter construct that faithfully reflects endogenous CHOP gene expression^21 was used to screen approximately 50,000 structurally diverse small molecules.
HEK293T CHOP-Luc cells were seeded at 7×10^3 cells/well in 384-well plates and treated with 10 μM of the library compounds the next day. After 24 h treatment, the medium was aspirated and 20 μL/well of Bright-Glo luciferase assay reagent was added. Luminescence was measured with an EnVision multilabel plate reader (PerkinElmer, Waltham, Mass., US). Hit selection was based on standard scores. The mean and standard deviation (SD) of luminescence for each compound was determined, and the standard score for each compound was then calculated as (raw measurement of a compound−mean)/SD of the plate. Compounds that increased ATP levels >3 SD compared with control wells (standard score >3) were considered hits.

[2] = tested on: endogenous CHOP gene; assay: Endogenous CHOP mRNA by qRT-PCR in HEK293 cells; type: cell-based, human; settings: 10 μM, 24 h
Excerpt: The primer sequences used were: Human CHOP: SEQ ID NO: 1 F, 5′-[sequence]-3′ and SEQ ID NO: 2 R, 5′-[sequence]-3′. Human ATF4: SEQ ID NO: 3 F, 5′-[sequence]-3′ and SEQ ID NO: 4 R, 5′-[sequence]-3′. […] Human Cyclophilin A: SEQ ID NO: 7 F, 5′-[sequence]-3′ and SEQ ID NO: 8 R, 5′-[sequence]-3′. Human GAPDH: SEQ ID NO: 9 F, 5′-[sequence]-3′ and SEQ ID NO: 10 R, 5′-[sequence]-3′.

[3] = tested on: HCC-1806 cells; assay: Cell viability, CellTiter-Glo, HCC-1806; type: cell-based; settings: Homo sapiens, HCC1806; 0.125 μM to 20 μM, CellTiter-Glo; read-out: IC50 cell viability HCC-1806
Experimental: (§1) Given the known functions of CHOP in ER stress-induced apoptosis^16, 17 and in regulating cancer cell death,^6, 19, 20 the inventor investigated whether compound 1 affects the viability of TNBC cells. Three human TNBC cell lines, HCC-1806, HCC-1143, and HCC-38, were treated with doses of 1 ranging from 0.125 μM to 20 μM and their viability was assessed using the CellTiter-Glo assay, which measures intracellular ATP levels.
(§2) HCC-1806, HCC-1143, or HCC-38 cells were seeded at 3×10^3 cells/well in a 384-well plate and treated with compounds at the indicated concentrations. After 3 d treatment, the medium was aspirated and 20 μL/well of CellTiter-Glo reagent was added. Cell viability was measured with an EnVision multilabel plate reader. The IC50 value for cell viability of each compound was calculated with GraphPad Prism (La Jolla, Calif., US).

[4] = tested on: HCC-1143 cells; assay: Cell viability, CellTiter-Glo, HCC-1143; type: cell-based; settings: Homo sapiens, HCC1143; 0.125 μM to 20 μM, CellTiter-Glo; read-out: IC50 cell viability HCC-1143
Experimental: as §1, §2

[5] = tested on: HCC-38 cells; assay: Cell viability, CellTiter-Glo, HCC-38; type: cell-based; settings: Homo sapiens, HCC38; 0.125 μM to 20 μM, CellTiter-Glo; read-out: IC50 cell viability HCC-38
Experimental: as §1, §2

[6] = tested on: XBP1 mRNA splicing (IRE1α pathway); assay: XBP1 mRNA splicing by RT-PCR in HCC-1806 cells; type: cell-based, human; settings: HCC-1806, tunicamycin 1 μg/mL, at 8 h
Experimental: FIG. 3E is a graph showing XBP1 mRNA levels in HCC-1806 cells treated with tunicamycin or a 5-nitrofuran-2-amide derivative compound 3d. HCC-1806 cells were treated with compound 3d (10 μM) or tunicamycin (Tm, 1 μg/mL) for the indicated times. XBP1 mRNA levels were analyzed by RT-PCR and the products were resolved by agarose gel electrophoresis. The full-length (unspliced, XBP1u) and spliced (XBP1s) forms of XBP1 mRNA are indicated. GAPDH mRNA was used as an internal control.
The percentage of XBP1s relative to total XBP1 was calculated as: (XBP1s/[XBP1s+XBP1u])×100%. The data shown are representative of 3 independent studies.
The inventor next asked whether the IRE1α and ATF6 branches of the unfolded protein response were also activated by compound 3d treatment of TNBC cells. […] XBP1 mRNA splicing, as measured by XBP1s levels, increased only slightly in the first 24 h after compound 3d treatment of HCC-1806 cells (from 11% of total XBP1 at 0 h to 15˜20% at 2˜24 h). […] Next, it was determined whether compound 3d activates the ATF6 pathway by evaluating its effect on the activity of an ER stress response elements (ERSE)-Luc reporter stably established in HEK293 cell line. […]

[7] = tested on: UPRE-Luciferase (UPRE-Luc) reporter; assay: UPRE-Luc reporter assay in HEK293 cells; type: cell-based, human; settings: 3d 10 μM or Tm 1 μg/mL, 24 h
Experimental: (§3) FIG. 3G is a graph showing HEK293 cells stably expressing CHOP-Luc, ERSE-Luc, or UPRE-luc reporters were treated with DMSO, a 5-nitrofuran-2-amide derivative, or tunicamycin. HEK293 cells stably expressing CHOP-Luc, ERSE-Luc, or UPRE-luc reporters were treated with DMSO, compound 3d (10 μM), or Tm (1 μg/mL) for 24 h, and luciferase activity was measured using the Bright-Glo assay. Results are the means of 4 replicate wells and are representative of 3 independent experiments.
(§4) The inventor next asked whether the IRE1α and ATF6 branches of the unfolded protein response were also activated by compound 3d treatment of TNBC cells. […] XBP1 mRNA splicing, as measured by XBP1s levels, increased only slightly in the first 24 h after compound 3d treatment of HCC-1806 cells (from 11% of total XBP1 at 0 h to 15˜20% at 2˜24 h). […] Next, it was determined whether compound 3d activates the ATF6 pathway by evaluating its effect on the activity of an ER stress response elements (ERSE)-Luc reporter stably established in HEK293 cell line.
(§5) The HEK293T CHOP reporter cell line (CHOP-Luc) was previously described.^21 HEK293T cells were stably transfected with ERSE-Luciferase^25 and UPRE-Luciferase^23 reporters to generate ERSE-Luc and UPRE-Luc reporter cell lines, respectively. […] Luciferase activity was measured with a Bright-Glo kit 24 h later.

[8] = tested on: ER stress response elements (ERSE)-Luc reporter; assay: ERSE-Luc reporter assay in HEK293 cells; type: cell-based, human; settings: Tm 1 μg/mL, 24 h
Experimental: as §3, §4, §5

Row | IC50 [3] [µM] | IC50 [4] [µM] | IC50 [5] [µM] | Compound | increase of CHOP-Luc reporter activity [1] [fold] | increase of mRNA level of the endogenous CHOP gene [2] | XBP1s, percentage of total XBP1 [6] [%] | increase of UPRE-Luc luciferase activity [7] [fold] | increase of ERSE-driven luciferase activity [8] [fold]
1 | 6.2 | 9.5 | 8.7 | O=C(Nc1ccc(I)cc1)c1ccc([N+](=O)[O-])o1 [Compound 1, N-(4-iodophenyl)-5-nitrofuran-2-carboxamide] | 24 | up to 30 fold |  |  | 
2 |  |  |  | tunicamycin [reference compound] |  |  | ~87 | > 25 | ~12
